By MIC is commonly meant the least concentration at which growth counts as inhibited. Low values mean greater potency, high ones weaker potency.

Consider five substances from patent US9833497B2, “Human originated EGF domain proteins and use of the same” (CHENGDU SOURCEBIO LIMITED-LIABILITY COMPANY, priority 2013, dated 2017).

What all share (type): cell-based
One assay concerns E. coli BL21. As to the kind of experiment: MIC against Gram-negative bacteria: E. coli BL21. As to conditions: 5×10^5 CFU/mL; for MIC against E. coli BL21: 96-well plate, 37° C., 10 h; for MIC E. coli BL21: 10 h cultivation at 37° C., two-fold serial dilution. Summed up: (§1)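 Bacteria grown in LB at 37° C with shaking to McFarland 0.5, pelleted and resuspended in fresh LB, then seeded at 5×10^5 CFU/mL per well. Purified recombinant human EGF domain proteins were two-fold serially diluted in triplicate and plates shaken at 37° C, 175 rpm. MIC is the lowest protein concentration with no bacterial growth.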

The test system of the next assay is Aeromonas hydrophila. In words: MIC against Gram-negative bacteria: Aeromonas hydrophila. As to conditions: 5×10^5 CFU/mL; for MIC against A. hydrophila: 96-well plate, 37° C., 10 h; for MIC A. hydrophila: 10 h cultivation at 37° C., two-fold serial dilution. The essentials:
as §1

The next assay deals with Serratia marcescens. In words: MIC against Gram-negative bacteria: Serratia marcescens. As to conditions: 5×10^5 CFU/mL; for MIC against S. marcescens: 96-well plate, 37° C., 10 h; for MIC S. marcescens: 10 h cultivation at 37° C., two-fold serial dilution. The essentials: as §1
The test system of the next assay is Moraxella catarrhalis. As to the kind of experiment: MIC against Gram-negative bacteria: Moraxella catarrhalis. As to conditions: 5×10^5 CFU/mL; for MIC against M. catarrhalis: 96-well plate, 37° C., 10 h; for MIC M. catarrhalis: 10 h cultivation at 37° C., two-fold serial dilution. Summed up: as §1
A further assay deals with Proteus mirabilis. In words: MIC against Gram-negative bacteria: Proteus mirabilis. As to conditions: 5×10^5 CFU/mL; for MIC against P. mirabilis: 96-well plate, 37° C., 10 h; for MIC P. mirabilis: 10 h cultivation at 37° C., two-fold serial dilution. The essentials:
as §1

The next assay deals with Klebsiella pneumonia. As to the kind of experiment: MIC against Gram-negative bacteria: Klebsiella pneumonia. As to conditions: 5×10^5 CFU/mL; for MIC against K. pneumonia: 96-well plate, 37° C., 10 h; for MIC K. pneumonia: 10 h cultivation at 37° C., two-fold serial dilution. Summed up:
as §1

For another assay, the system named is Citrobacter diversus. As to the kind of experiment: MIC against Gram-negative bacteria: Citrobacter diversus. As to conditions: 5×10^5 CFU/mL; for MIC against C. diversus: 96-well plate, 37° C., 10 h; for MIC C. diversus: 10 h cultivation at 37° C., two-fold serial dilution. The essentials:
as §1

A further assay relates to Pseudomonas aeruginosa. In words: MIC against Gram-negative bacteria: Pseudomonas aeruginosa. As to conditions: 5×10^5 CFU/mL; for MIC against P. aeruginosa: 96-well plate, 37° C., 10 h; for MIC P. aeruginosa: 10 h cultivation at 37° C., two-fold serial dilution. Summed up: as §1
Another assay relates to Proteus vulgaris. In words: MIC against Gram-negative bacteria: Proteus vulgaris. As to conditions: 5×10^5 CFU/mL; for MIC against P. vulgaris: 96-well plate, 37° C., 10 h; for MIC P. vulgaris: 10 h cultivation at 37° C., two-fold serial dilution. Summed up:
as §1

The next assay relates to Enterobacter cloacae. As to the kind of experiment: MIC against Gram-negative bacteria: Enterobacter cloacae. As to conditions: 5×10^5 CFU/mL; for MIC against E. cloacae: 96-well plate, 37° C., 10 h; for MIC E. cloacae: 10 h cultivation at 37° C., two-fold serial dilution. The essentials:
as §1

The test system of a further assay is E. coli DH5α. In words: Antibacterial activity: MIC and growth curve against E. coli DH5α in 96-well plate. As to conditions: minimal inhibitory concentration against E. coli DH5α; 96-well plate, 5×10^5 CFU/mL, 37° C., judged after 8 h. The essentials:
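MIC taken as lowest protein level with no bacterial growth, tracked by A600 every 30 min during 37 °C, 175 rpm culture. Two-fold protein series 50-12.5 μg/mL final, triplicate wells, against 5×10^5 CFU/mL of LB-washed mid-log cells.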

“PRT513 (CECDPYGSLPVPCDPVTGFCTCRPGATGRKCDGCKHWHAREGWECVF; listed as Homo sapiens)”: in the assay on E. coli BL21, the “MIC against E. coli BL21” value came out at 12.5 µg/mL. For the same substance, in the assay on Aeromonas hydrophila, the “MIC against A. hydrophila” value amounted to 50 µg/mL. Besides, the “MIC against S. marcescens” value in the assay with Serratia marcescens worked out at 12.5 µg/mL. Also, the “MIC against M. catarrhalis” value against Moraxella catarrhalis amounted to 12.5 µg/mL. The “MIC against P. mirabilis” value against Proteus mirabilis came out at 50 µg/mL. The “MIC against K. pneumonia” value in the assay with Klebsiella pneumonia turned out to be 12.5 µg/mL. Further, in the assay on Citrobacter diversus, the “MIC against C. diversus” value worked out at 25 µg/mL. The “MIC against P. aeruginosa” value against Pseudomonas aeruginosa was found to be 50 µg/mL. The “MIC against P. vulgaris” value with Proteus vulgaris was determined as 12.5 µg/mL. In addition, in the assay with Enterobacter cloacae, the “MIC against E. cloacae” value turned out to be 25 µg/mL. Further, in the assay on E. coli DH5α, the minimal inhibitory concentration (MIC) is 50 µg/mL.

Regarding “PRT1132 (DEHICTTQSPCQNGGQCMYDGGGEYHCVCLPGFHGRDCE; listed as Homo sapiens)”, in the assay on E. coli BL21, the “MIC E. coli BL21” value was determined as 12.5 µg/mL. In the assay on Aeromonas hydrophila, the “MIC A. hydrophila” value worked out at 12.5 µg/mL. Further, the “MIC S. marcescens” value with Serratia marcescens amounted to 25 µg/mL. Moreover, the “MIC M. catarrhalis” value in the assay with Moraxella catarrhalis was determined as 12.5 µg/mL. Moreover, the “MIC P. mirabilis” value in the assay on Proteus mirabilis was 25 µg/mL. Also, in the assay with Klebsiella pneumonia, the “MIC K. pneumonia” value is 12.5 µg/mL. The “MIC C. diversus” value in the assay with Citrobacter diversus worked out at 50 µg/mL. Moreover, the “MIC P. aeruginosa” value with Pseudomonas aeruginosa is 50 µg/mL. Also, the “MIC P. vulgaris” value in the assay with Proteus vulgaris was found to be 50 µg/mL. Moreover, the “MIC E. cloacae” value with Enterobacter cloacae amounted to 50 µg/mL. Further, the minimum inhibitory concentration (MIC) against E. coli DH5α was 50 µg/mL.

On to “PRT1159 (TTDDQENECQHEAVCKDEINRPRCSCSLSYIGRLCV; listed as Homo sapiens)”, for which, in the assay with E. coli BL21, the “MIC E. coli BL21” value came to 50 µg/mL. Further, in the assay with Aeromonas hydrophila, the “MIC A. hydrophila” value was determined as 25 µg/mL. In the assay on Serratia marcescens, the “MIC S. marcescens” value came out at 12.5 µg/mL. In the assay with Moraxella catarrhalis, the “MIC M. catarrhalis” value came to 25 µg/mL. The “MIC P. mirabilis” value against Proteus mirabilis came to 12.5 µg/mL. The “MIC K. pneumonia” value against Klebsiella pneumonia came out at 50 µg/mL. For the same substance, the “MIC C. diversus” value in the assay with Citrobacter diversus amounted to 50 µg/mL. For the same substance, in the assay on Pseudomonas aeruginosa, the “MIC P. aeruginosa” value was determined as 12.5 µg/mL. Further, the “MIC P. vulgaris” value against Proteus vulgaris was 25 µg/mL. In the assay on Enterobacter cloacae, the “MIC E. cloacae” value came out at 12.5 µg/mL. Besides, the MIC with E. coli DH5α came to 12.5 µg/mL.

Turning to “PRT556 (CQCSSPGVADDRCDPDTGQCRCRVGFEGATCDRCAPGYFHFPLCQL; listed as Homo sapiens)”, in the assay with E. coli BL21, the “MIC against E. coli BL21” value was 50 µg/mL. Besides, the “MIC against A. hydrophila” value in the assay on Aeromonas hydrophila was 50 µg/mL. In addition, in the assay on Serratia marcescens, the “MIC against S. marcescens” value is 25 µg/mL. In addition, the “MIC against M. catarrhalis” value against Moraxella catarrhalis was 12.5 µg/mL. The “MIC against P. mirabilis” value in the assay with Proteus mirabilis came to 25 µg/mL. Besides, in the assay with Klebsiella pneumonia, the “MIC against K. pneumonia” value came to 50 µg/mL. The “MIC against C. diversus” value in the assay on Citrobacter diversus worked out at 25 µg/mL. The “MIC against P. aeruginosa” value against Pseudomonas aeruginosa came out at 12.5 µg/mL. Besides, the “MIC against P. vulgaris” value in the assay with Proteus vulgaris stood at 12.5 µg/mL. The “MIC against E. cloacae” value in the assay on Enterobacter cloacae was 12.5 µg/mL. In the assay with E. coli DH5α, this substance had a minimal inhibitory concentration (MIC) of 25 µg/mL.

“PRT1099 (PSTVCGNEKTNLTCYNGGNCTEFQTELKCMCRPGFTGEWCE; listed as Homo sapiens)”: the “MIC E. coli BL21” value against E. coli BL21 amounted to 50 µg/mL. For the same substance, the “MIC A. hydrophila” value in the assay with Aeromonas hydrophila was found to be 50 µg/mL. In the assay with Serratia marcescens, the “MIC S. marcescens” value is 12.5 µg/mL. Also, the “MIC M. catarrhalis” value with Moraxella catarrhalis amounted to 12.5 µg/mL. The “MIC P. mirabilis” value against Proteus mirabilis is 25 µg/mL. Besides, the “MIC K. pneumonia” value in the assay with Klebsiella pneumonia amounted to 50 µg/mL. The “MIC C. diversus” value in the assay with Citrobacter diversus came out at 25 µg/mL. The “MIC P. aeruginosa” value against Pseudomonas aeruginosa worked out at 12.5 µg/mL. In addition, in the assay on Proteus vulgaris, the “MIC P. vulgaris” value is 50 µg/mL. Besides, the “MIC E. cloacae” value in the assay with Enterobacter cloacae stood at 12.5 µg/mL. Besides, the minimal inhibitory concentration (MIC) with E. coli DH5α was 12.5 µg/mL.
